Tested on: lung cancer cell line NCI-H82
Test: Cell proliferation assay, NCI-H82 (CELL-TITER GLO)
Type: cell-based
Settings: Homo sapiens, NCI-H82, 72 h, NCI-H82 cells, 72 h incubation, cell viability by CELL-TITER GLO, top concentration 1 μM; read-out: EC50, Inhibition of NCl-H82 Cell Proliferation
How it was run: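 NCI-H82 cells, 1,000 per well in RPMI1640, were treated after overnight plating with a 3-fold dilution series from 1 μM. Viability read by CellTiter-Glo luminescence after 72 h. EC50 derived from the curves.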

EC50 [nM]	Compound
≤ 200	C#Cc1nc(NC(=O)N2CCN(c3ncc(-c4cccc5ncsc45)cc3C#N)C[C@@H]2CO)cs1 [Compound B59, (R)-4-(5-(Benzo[d]thiazol-7-yl)-3-cyanopyridin-2-yl)-N-(2-ethynylthiazol-4-yl)-2-(hydroxymethyl)piperazine-1-carboxamide]
≤ 200	C#Cc1nnc(NC(=O)N[C@@H](COC(N)=O)c2ccc(-c3cccc(N4CCCC4)n3)cc2)s1 [Compound A94, (R)-2-(3-(5-Ethynyl-1,3,4-thiadiazol-2-yl)ureido)-2-(4-(6-(pyrrolidin-1-yl)-pyridin-2-yl)phenyl)ethyl carbamate]
≤ 200	C#Cc1nc(NC(=O)N[C@@H](CO)C(=O)N2CCC3(CCC3)CC2)cs1 [Compound A153, (S)-1-(2-Ethynylthiazol-4-yl)-3-(3-hydroxy-1-oxo-1-(7-azaspiro[3.5]nonan-7-yl)propan-2-yl)urea]
≤ 200	C#Cc1nc(NC(=O)N[C@@H](C(=O)NC)c2ccc(-c3cccc(C4(C#N)CC4)c3)cc2)cs1 [Compound A217, (R)-2-(3′-(1-Cyanocyclopropyl)-[1,1′-biphenyl]-4-yl)-2-(3-(2-ethynylthiazol-4-yl)ureido)-N-methylacetamide]
≤ 200	C#Cc1nc(NC(=O)N[C@@H](CO)c2ccc(N3CCCCC3=O)cc2)cs1 [Compound A131, (R)-1-(2-Ethynylthiazol-4-yl)-3-(2-hydroxy-1-(4-(2-oxopiperidin-1-yl)phenyl)-ethyl)urea]
≤ 200	C#Cc1nc(NC(=O)N[C@H](c2ccc(-c3cccc4ncsc34)cc2)C(C)O)cs1 (stereo partly drawn) [Compound A204, 1-((1R)-1-(4-(Benzo[d]thiazol-7-yl)phenyl)-2-hydroxypropyl)-3-(2-ethynyl-thiazol-4-yl)urea]
≤ 200	C#Cc1nc(NC(=O)NCc2ccc(-c3cccc4ncsc34)cn2)cs1 [Compound A179, 1-((5-(Benzo[d]thiazol-7-yl)pyridin-2-yl)methyl)-3-(2-ethynylthiazol-4-yl)urea]
≤ 200	C#Cc1nc(NC(=O)NCC2CCC(c3cccc(C4(C#N)CC4)c3)CC2)cs1 (stereo not shown) [Compound A238, 1-((4-(3-(1-Cyanocyclopropyl)phenyl)cyclohexyl)methyl)-3-(2-ethynylthiazol-4-yl)urea]
≤ 200	C#Cc1nc(NC(=O)N[C@@H](COC(N)=O)c2ccc(-c3cccc(C4(C#N)CC4)c3)cn2)cs1 [Compound A236, (R)-2-(5-(3-(1-Cyanocyclopropyl)phenyl)pyridin-2-yl)-2-(3-(2-ethynylthiazol-4-yl)ureido)ethyl carbamate]
≤ 200	C#Cc1nc(NC(=O)NC(COC(N)=O)c2ccc(-c3cccc(C4(C#N)CC4)c3)cc2)cs1 (stereo not shown) [Compound A222]
≤ 200	C#Cc1nc(NC(=O)N[C@@H](CO)c2ccc(-c3cccc4ncsc34)cn2)cs1 [Compound A114, (R)-1-(1-(5-(Benzo[d]thiazol-7-yl)pyridin-2-yl)-2-hydroxyethyl)-3-(2-ethynyl-thiazol-4-yl)urea]
≤ 200	C#Cc1nc(NC(=O)N[C@@H](COC(N)=O)c2ccc(C3=CCCc4c3cnn4C)cc2)cs1 [Compound A233, (R)-2-(3-(2-Ethynylthiazol-4-yl)ureido)-2-(4-(1-methyl-6,7-dihydro-1H-indazol-4-yl)phenyl)ethyl carbamate]
≤ 200	C#Cc1nc(NC(=O)N[C@@H](CO)c2ccc(-c3c(C#N)ccc4cccnc34)cc2)cs1 [Compound A52, (R)-1-(1-(4-(7-Cyanoquinolin-8-yl)phenyl)-2-hydroxyethyl)-3-(2-ethynylthiazol-4-yl)urea]
≤ 200	C#Cc1nc(NC(=O)N[C@@H](CS(C)(=O)=O)c2ccc(-c3cccc4ncsc34)cc2)cs1 [Compound A197, (R)-1-(1-(4-(Benzo[d]thiazol-7-yl)phenyl)-2-(methylsulfonyl)ethyl)-3-(2-ethynyl-thiazol-4-yl)urea]

More lines, now with the values behind:

Compound	EC50 [nM]
C#Cc1nc(NC(=O)N[C@@H](CO)c2ccc(C3CCCN(C(C)=O)C3)cc2)cs1 (stereo partly drawn) [Compound A194, 1-((1R)-1-(4-(1-Acetylpiperidin-3-yl)phenyl)-2-hydroxyethyl)-3-(2-ethynyl-thiazol-4-yl)urea]	200 to 1000
C#Cc1nc(NC(=O)N[C@@H](CO)C(=O)N2CCC3(CC2)CC3)cs1 [Compound A152, (S)-1-(2-Ethynylthiazol-4-yl)-3-(3-hydroxy-1-oxo-1-(6-azaspiro[2.5]octan-6-yl)propan-2-yl)urea]	≤ 200
C#Cc1nc(NC(=O)N(C)[C@@H](COC(N)=O)c2ccc(-c3cccc(N4CCCC4)n3)cn2)cs1 [Compound A92, (R)-2-(3-(2-Ethynylthiazol-4-yl)-1-methylureido)-2-(6-(pyrrolidin-1-yl)-[2,3′-bipyridin]-6′-yl)ethyl carbamate]	≤ 200
C#Cc1nc(NC(=O)N[C@@H](CO)c2ccc(N3CCCC(F)(F)C3)cn2)cs1 [Compound A136, (R)-1-(1-(5-(3,3-Difluoropiperidin-1-yl)pyridin-2-yl)-2-hydroxyethyl)-3-(2-ethynylthiazol-4-yl)urea]	≤ 200
C#Cc1nc(NC(=O)N[C@@H](CO)c2ccc(-c3cccc(C4CC4(F)F)c3)cc2)cs1 (stereo partly drawn) [Compound A188, 1-((1R)-1-(3′-(2,2-Difluorocyclopropyl)-[1,1′-biphenyl]-4-yl)-2-hydroxyethyl)-3-(2-ethynylthiazol-4-yl)urea]	≤ 200
C#Cc1nc(NC(=O)NCc2ccc(-c3cccc(C4(C#N)CC4)c3)nc2)cs1 [Compound A180, 1-((6-(3-(1-Cyanocyclopropyl)phenyl)pyridin-3-yl)methyl)-3-(2-ethynylthiazol-4-yl)urea]	≤ 200
C#Cc1nc(NC(=O)N2CCN(c3ccc(-c4cccc5c4cnn5C)cc3)CC2)cs1 [Compound B18, N-(2-Ethynylthiazol-4-yl)-4-(4-(1-methyl-1H-indazol-4-yl)phenyl)piperazine-1-carboxamide]	≤ 200
C#Cc1nc(NC(=O)NCC2CCN(c3cccc(C4(C#N)CC4)c3)CC2)cs1 [Compound A240, 1-((1-(3-(1-Cyanocyclopropyl)phenyl)piperidin-4-yl)methyl)-3-(2-ethynylthiazol-4-yl)urea]	≤ 200
C#Cc1nccc(NC(=O)N[C@@H](CO)c2ccc(-c3cccc4ncsc34)cc2)n1 [Compound A241, (R)-1-(1-(4-(Benzo[d]thiazol-7-yl)phenyl)-2-hydroxyethyl)-3-(2-ethynyl-pyrimidin-4-yl)urea]	≤ 200
C#Cc1nc(NC(=O)N[C@@H](CO)c2ccc(C3=CCCN(C)C3)cc2)cs1 [Compound A193, (R)-1-(2-Ethynylthiazol-4-yl)-3-(2-hydroxy-1-(4-(1-methyl-1,2,5,6-tetrahydro-pyridin-3-yl)phenyl)ethyl)urea]	200 to 1000
C#Cc1nc(NC(=O)N[C@@H](CO)c2ccc(N3CCCCC3)cn2)cs1 [Compound A135, (R)-1-(2-Ethynylthiazol-4-yl)-3-(2-hydroxy-1-(5-(piperidin-1-yl)pyridin-2-yl)-ethyl)urea]	≤ 200
C#Cc1nc(NC(=O)N(CCO)Cc2ccc(-c3cccc4ncsc34)cc2)cs1 [Compound A206, 1-(4-(Benzo[d]thiazol-7-yl)benzyl)-3-(2-ethynylthiazol-4-yl)-1-(2-hydroxyethyl)-urea]	≤ 200
C#Cc1nc(NC(=O)NCC(=O)N2CCC(c3ccccc3C#N)CC2)cs1 [Compound A35, 1-(2-(4-(2-Cyanophenyl)piperidin-1-yl)-2-oxoethyl)-3-(2-ethynylthiazol-4-yl)urea]	200 to 1000
C#Cc1nc(NC(=O)N[C@@H](CO)C(=O)N2CC(c3ccccc3C#N)C2)cs1 [Compound A145, (S)-1-(1-(3-(2-Cyanophenyl)azetidin-1-yl)-3-hydroxy-1-oxopropan-2-yl)-3-(2-ethynylthiazol-4-yl)urea]	200 to 1000
C#Cc1nc(NC(=O)NC(C(N)=O)c2ccc(-c3cccc4ncsc34)cc2)cs1 (stereo not shown) [Compound A209, 2-(4-(Benzo[d]thiazol-7-yl)phenyl)-2-(3-(2-ethynylthiazol-4-yl)ureido)acetamide]	≤ 200
C#Cc1nc(NC(=O)NCC2CCN(c3ccccc3C#N)CC2)cs1 [Compound A37, 1-((1-(2-Cyanophenyl)piperidin-4-yl)methyl)-3-(2-ethynylthiazol-4-yl)urea]	≤ 200
C#Cc1nc(NC(=O)N[C@@H](COC(N)=O)c2ccc(-c3cccc4nnsc34)cc2)cs1 [Compound A225, (R)-2-(4-(Benzo[d][1,2,3]thiadiazol-7-yl)phenyl)-2-(3-(2-ethynylthiazol-4-yl)-ureido)ethyl carbamate]	≤ 200
C#Cc1nc(NC(=O)NCc2ccc(-c3cccc4nc(N5CC(F)(F)C5)nc(O)c34)cc2)cs1 [Compound A171, 1-(4-(2-(3,3-Difluoroazetidin-1-yl)-4-hydroxyquinazolin-5-yl)benzyl)-3-(2-ethynylthiazol-4-yl)urea]	≤ 200
C#Cc1nc(NC(=O)NCc2ccc(-c3cccc4nc(OCCO)nc(O)c34)cc2)cs1 [Compound A172, 1-(2-Ethynylthiazol-4-yl)-3-(4-(4-hydroxy-2-(2-hydroxyethoxy)quinazolin-5-yl)-benzyl)urea]	≤ 200
C#Cc1nc(NC(=O)N[C@@H](COC(N)=O)c2ccc(-c3ccccc3C#N)cc2)cs1 [Compound A46, (R)-2-(2′-Cyano-[1,1′-biphenyl]-4-yl)-2-(3-(2-ethynylthiazol-4-yl)ureido)ethyl carbamate]	≤ 200
C#Cc1nc(NC(=O)NCC(=O)N2CCN(c3ccccc3C#N)CC2)cs1 [Compound A36, 1-(2-(4-(2-Cyanophenyl)piperazin-1-yl)-2-oxoethyl)-3-(2-ethynylthiazol-4-yl)urea]	≤ 200
C#Cc1nc(NC(=O)N2CCN(c3ccc(-c4cccc5nnsc45)cc3)CC2)cs1 [Compound B28, 4-(4-(Benzo[d][1,2,3]thiadiazol-7-yl)phenyl)-N-(2-ethynylthiazol-4-yl)piperazine-1-carboxamide]	≤ 200
C#Cc1nc(NC(=O)N[C@@H](CO)c2ccc(N3CCOCC3)cc2)cs1 [Compound A133, (R)-1-(2-Ethynylthiazol-4-yl)-3-(2-hydroxy-1-(4-morpholinophenyl)ethyl)urea]	≤ 200
